Test results from US7572606B1 (Nereus Pharmaceuticals, Inc., priority 2005, dated 2009).
Read-outs that look alike come from different tables or passages of the source.

Experiments:
Assay in all cases: NCI 60 cell line screen, sulforhodamine B, 48 h
Type in all cases: cell-based, human
SK-MEL-2 = conditions: SK-MEL-2, Melanoma
Description: (§1) A detailed description of the screening procedure can be found at hypertext transfer protocol (http://) “dtp.nci.nih.gov/branches/btb/ivclsp.html.”
(§2) In brief, each of the 60 human tumor cell lines were grown in RPMI 1640 medium, supplemented with 5% fetal bovine serum and 2 mM L-glutamine. Cells were plated at their appropriate density in 96-well microtiter plates and incubated at 37° C., 5% CO2, 95% air and 100% relative humidity. […] Cells were incubated for an additional 48 hours and a sulforhodamine B protein assay was used to estimate cell viability or growth.

SNB-75 = conditions: SNB-75, CNS Cancer
Description: as §1, §2

SW-620 = conditions: SW-620, Colon Cancer
Description: as §1, §2

UACC-257 = test system: UACC-257
Description: as §1, §2

M14 = test system: M14
Description: as §1, §2

NCI-H460 = conditions: NCI-H460, Non-Small Cell Lung Cancer
Description: as §1, §2

OVCAR-8 = conditions: OVCAR-8, Ovarian Cancer
Description: as §1, §2

KM12 = conditions: KM12, Colon Cancer
Description: as §1, §2

PC-3 = test system: PC-3
Description: as §1, §2

BT-459 = test system: BT-459
Description: as §1, §2

HCT-116 = conditions: HCT-116, Colon Cancer
Description: as §1, §2

HCI-H23 = conditions: HCI-H23, Non-Small Cell Lung Cancer
Description: as §1, §2

MOLT-4 = test system: MOLT-4
Description: as §1, §2

CCRF-CEM = conditions: Leukemia
Description: as §1, §2

A549/ATCC = conditions: Non-Small Cell Lung Cancer
Description: as §1, §2

MDA-MB-435 = conditions: for CC50: Homo sapiens
Description: as §1, §2

T-47D = test system: T-47D
Description: as §1, §2

SN12C = conditions: Renal Cancer
Description: as §1, §2

tGROV1 = conditions: tGROV1, Ovarian Cancer
Description: as §1, §2

K-562 = conditions: K-562, Leukemia
Description: as §1, §2

NCI-H236 = conditions: NCI-H236, Non-Small Cell Lung Cancer
Description: as §1, §2

HCT-15 = test system: HCT-15
Description: as §1, §2

SR = conditions: Leukemia
Description: as §1, §2

HCC-2998 = test system: HCC-2998
Description: as §1, §2

MDA-MB-231/ATCC = conditions: Breast Cancer
Description: as §1, §2

OVCAR-4 = conditions: OVCAR-4, Ovarian Cancer
Description: as §1, §2

NCVADR-RES = test system: NCVADR-RES
Description: as §1, §2

HT29 = test system: HT29
Description: as §1, §2

NCI-H322M = conditions: Non-Small Cell Lung Cancer
Description: as §1, §2

UACC-62 = test system: UACC-62
Description: as §1, §2

[1] = Homo sapiens, 60 cell, read-out: Log10 LC50 (converted)

With `C[C@@]12OC(=O)[C@]1([C@@H](O)[C@@H]1C=CCCC1)NC(=O)[C@@H]2CCCl` [Formula II-16, Salinosporamide A] the “Log10 G150” value (SK-MEL-2) was <-8.00 Molar, the “Log10 TGI” value (SK-MEL-2) was <-8.00 Molar and the “Log10 G150” value (SNB-75) was <-8.00 Molar. The “Log10 TGI” value (SNB-75) was <-8.00 Molar, the “Log10 G150” value (SW-620) was <-8.00 Molar and the “Log10 TGI” value (SW-620) was >-4.00 Molar. The CC50 (UACC-257; Homo sapiens, UACC-257, read-out: Log10 LC50 (converted)) was 427 nM, the “Log10 G150” value (UACC-257; UACC-257, Melanoma) was <-8.00 Molar and the “Log10 TGI” value (UACC-257; UACC-257, Melanoma) was <-8.00 Molar. For the same molecule, the CC50 (M14; Homo sapiens, M14, read-out: Log10 LC50 (converted)) was 186 nM, the “Log10 G150” value (M14; M14, Melanoma) was <-8.00 Molar and the “Log10 TGI” value (M14; M14, Melanoma) was -7.94 Molar. For the same molecule, the “Log10 G150” value (NCI-H460) was <-8.00 Molar, the “Log10 TGI” value (NCI-H460) was -6.97 Molar and the “Log10 G150” value (OVCAR-8) was <-8.00 Molar. For the same molecule, the “Log10 TGI” value (OVCAR-8) was -7.70 Molar, the “Log10 G150” value (KM12) was <-8.00 Molar and the “Log10 TGI” value (KM12) was -6.00 Molar. The CC50 (PC-3; Homo sapiens, PC-3, read-out: Log10 LC50 (converted)) was 11700 nM, the “Log10 G150” value (PC-3; PC-3, Prostate Cancer) was <-8.00 Molar and the “Log10 TGI” value (PC-3; PC-3, Prostate Cancer) was -5.81 Molar. The “Log10 G150” value (BT-459; BT-459, Breast Cancer) was <-8.00 Molar, the “Log10 TGI” value (BT-459; BT-459, Breast Cancer) was <-8.00 Molar and the CC50 (BT-459; [1]) was 60.3 nM. For the same molecule, the “Log10 G150” value (HCT-116) was <-8.00 Molar, the “Log10 TGI” value (HCT-116) was -7.14 Molar and the “Log10 G150” value (HCI-H23) was <-8.00 Molar. For the same molecule, the “Log10 TGI” value (HCI-H23) was -7.85 Molar, the CC50 (MOLT-4; Homo sapiens, MOLT-4, read-out: Log10 LC50 (converted)) was > 100000 nM and the “Log10 G150” value (MOLT-4; MOLT-4, Leukemia) was <-8.00 Molar. For the same molecule, the “Log10 TGI” value (MOLT-4; MOLT-4, Leukemia) was <-8.00 Molar, the “Log10 G150” value (CCRF-CEM) was <-8.00 Molar and the “Log10 TGI” value (CCRF-CEM) was <-8.00 Molar. The “Log10 G150” value (A549/ATCC) was <-8.00 Molar, the “Log10 TGI” value (A549/ATCC) was -4.70 Molar and the CC50 (MDA-MB-435; MDA-MB-435, read-out: LC50) was < 10 nM. For the same molecule, the CC50 (MDA-MB-435; MDA-MB-435, read-out: Log10 LC50 (converted)) was < 10 nM, the “Log10 G150” value (MDA-MB-435; MDA-MB-435, Breast Cancer) was <-8.00 Molar and the “Log10 TGI” value (MDA-MB-435; MDA-MB-435, Breast Cancer) was <-8.00 Molar. For the same molecule, the CC50 (T-47D; Homo sapiens, T47D, read-out: Log10 LC50 (converted)) was > 100000 nM, the “Log10 G150” value (T-47D; T-47D, Breast Cancer) was <-8.00 Molar and the “Log10 TGI” value (T-47D; T-47D, Breast Cancer) was >-4.00 Molar. For the same molecule, the “Log10 G150” value (SN12C) was <-8.00 Molar, the “Log10 TGI” value (SN12C) was <-8.00 Molar and the “Log10 G150” value (tGROV1) was <-8.00 Molar. The “Log10 TGI” value (tGROV1) was -5.18 Molar, the “Log10 G150” value (K-562) was <-8.00 Molar and the “Log10 TGI” value (K-562) was -5.59 Molar. For the same molecule, the “Log10 G150” value (NCI-H236) was <-8.00 Molar, the “Log10 TGI” value (NCI-H236) was <-8.00 Molar and the “Log10 G150” value (HCT-15; HCT-15, Colon Cancer) was <-8.00 Molar. The “Log10 TGI” value (HCT-15; HCT-15, Colon Cancer) was -6.06 Molar, the CC50 (HCT-15; Homo sapiens, HCT-15, read-out: Log10 LC50 (converted)) was 56200 nM and the “Log10 G150” value (SR) was <-8.00 Molar. The “Log10 TGI” value (SR) was <-8.00 Molar, the “Log10 G150” value (HCC-2998; HCC-2998, Colon Cancer) was <-8.00 Molar and the “Log10 TGI” value (HCC-2998; HCC-2998, Colon Cancer) was <-8.00 Molar. The CC50 (HCC-2998; Homo sapiens, HCC 2998, read-out: Log10 LC50 (converted)) was 17.8 nM, the “Log10 G150” value (MDA-MB-231/ATCC) was <-8.00 Molar and the “Log10 TGI” value (MDA-MB-231/ATCC) was <-8.00 Molar. For the same molecule, the “Log10 G150” value (OVCAR-4) was <-8.00 Molar, the “Log10 TGI” value (OVCAR-4) was <-8.00 Molar and the CC50 (NCVADR-RES; [1]) was 178 nM. For the same molecule, the “Log10 G150” value (NCVADR-RES; NCVADR-RES, Breast Cancer) was <-8.00 Molar, the “Log10 TGI” value (NCVADR-RES; NCVADR-RES, Breast Cancer) was <-8.00 Molar and the “Log10 G150” value (HT29; HT29, Colon Cancer) was <-8.00 Molar. The “Log10 TGI” value (HT29; HT29, Colon Cancer) was -7.37 Molar, the CC50 (HT29; Homo sapiens, HT-29, read-out: Log10 LC50 (converted)) was 38000 nM and the “Log10 G150” value (NCI-H322M) was <-8.00 Molar. The “Log10 TGI” value (NCI-H322M) was -5.48 Molar, the CC50 (UACC-62; Homo sapiens, UACC-62, read-out: Log10 LC50 (converted)) was 91.2 nM and the “Log10 G150” value (UACC-62; UACC-62, Melanoma) was <-8.00 Molar. The “Log10 TGI” value (UACC-62; UACC-62, Melanoma) was <-8.00 Molar.
